Results: patent publication US11390625B2, “Aryl-phosphorus-oxygen compound as EGFR kinase inhibitor” (Chia Tai Tianqing Pharmaceutical Group Co., Ltd., priority 2017, dated 2022)

Experiments:
[1] = target: EGFR (Δ19del/T790M/C797S) (Homo sapiens, UniProt P00533, C797S/T790M, form not given); experiment: Enzyme activity experiment (1): EGFR (Δ19del/T790M/C797S) enzyme inhibition; format: biochemical; conditions: read-out: EGFR (Δ19del/T790M/C797S) IC50
Experimental: 1) 10 μL of the compounds to be tested and reference compounds diluted to 10 mM were taken into an Echo LDV plate, which were diluted according to the compound profile with Echo.
1) 1×enzyme reaction buffer was prepared: 1× enzyme buffer, 5 mM MgCl2, 1 mM DTT (dithiothreitol), water.
2) A mixed solution of 10 nM enzyme (final concentration of 5 nM) and 2 μM substrate (final concentration of 1 μM) and a solution containing the substrate alone were prepared with the diluted enzyme reaction buffer.
3) 5 μL of the substrate was added into A1-H1, J24-P24 (the number of the well position), and 5 μL of the mixture of the enzyme and substrate was added into the remaining wells.
4) Centrifugation was performed at 1000 rpm at 23° C. for 30 s.
5) Incubation was performed at 23° C. for 15 min.
7) Centrifugation was performed at 1000 rpm at 23° C. for 30 s.
8) Incubation was performed at 23° C. for 60 min.
9) 10 μL of 250 nM TK Antibody-Crypate (a final concentration of 125 nM) and 1×D2 (a final concentration ½ time) prepared with Detection buffer were added.
10) Centrifugation was performed at 1000 rpm at 23° C. for 30 s.
11) Incubation was performed at 23° C. for 60 min.
12) The data was read with Envision, and the ratio was calculated to obtain the IC50 of the compound for inhibiting the enzyme activity.

EGFR (WT) = EGFR (WT) (Homo sapiens (Human), UniProt P00533); experiment: Enzyme activity experiment (2): EGFR WT enzyme inhibition; format: biochemical
Experimental: (§1) 1. Gradient Dilution of the Compound:
(§2) The dilution and transfer of the compounds were completed by Echo by Labcyte Inc., with a three-fold concentration gradient, a total of 11 dose points, and 100 nL of the compounds per well. The maximum concentration of the test compounds in the kinase reaction solutions was 1000 nM. The maximum concentration of the reference compound (Crizotinib & AP26113) in the kinase reaction solution was 1000 nM. The maximum concentration of the reference compound (AZD9291) in the kinase reaction solution was 300 nM.
(§3) The plate was centrifuged at a speed of 1000 rpm for 60 seconds. The test plate was incubated at 23° C. for 15 minutes.
(§4) (3) The test plate was film sealed and incubated at 23° C. for 90 minutes.
(§5) (4) The test plate was added with 2× detection solution (4 nM TK antibody and 125 nM XL665), 10 μL per well, and centrifuged at a speed of 1000 rpm for 60 seconds, and film sealed, which was incubated at 23° C. for 60 minutes.
(§6) (5) The plate was read on the Multi-Mark Detector Envision.

EGFR (C797S/T790M/L858R) = EGFR (C797S/T790M/L858R) (Homo sapiens (Human), UniProt P00533, C797S/L858R/T790M); experiment: Enzyme activity experiment (2): EGFR (C797S/T790M/L858R) enzyme inhibition; format: biochemical
Experimental: as §1, §2, §3, §4, §5, §6

[2] = system: Ba/F3 (EGFR Δ19del/T790M/C797S) cells; experiment: Anti-proliferation experiment on cells (2), Ba/F3 (EGFR Δ19del/T790M/C797S); format: cell-based; conditions: Ba/F3 EGFR, 72 h; Ba/F3 cells, 3 days; read-out: anti-proliferation effect on cells Ba/F3(Δ19del/T790M/C797S) IC50
Experimental: The compounds ware transferred to a 384-well plate, with 125 nL of compound per well. […] After 3 days, 25 μL of detection reagent was added. The plate was incubated at room temperature for 10 minutes and then read with Envision.

PC-9 (Δ19del) xenograft = experiment: In vivo pharmacodynamics study (2): PC-9 (Δ19del) subcutaneously transplanted tumor in mouse; conditions: 50 mg/kg (days 0-9); for Tumor volume Day 0 / Tumor volume Day 2 / Tumor volume Day 6 / Tumor volume Day 9 / Tumor volume Day 13 / Tumor volume Day 16 / Tumor volume Day 20 / Tumor volume Day 23: 25 mg/kg (days 10-21) oral once a day
Experimental: 1. Cell culture: lung cancer PC-9 cells were monolayer cultured in vitro, culture conditions: RPMI-1640 (cell culture medium) plus 10% fetal bovine serum, 100 U/mL penicillin and 100 μg/mL streptomycin, culture in a 5% CO2 incubator at 37° C. The cells were conventionally digested with trypsin-EDTA twice a week for passage. When the cell saturation was 80%-90%, and the number reached the requirements, the cells were collected and counted. The density was 5×10^6 cells.
2. Cell inoculation: 0.2 mL (containing 5×10^6 cells) of PC-9 cell suspension (PBS: Matrigel=1:1) was subcutaneously inoculated into the right back of each mouse, with a total of 64 mice. On Day 7 after inoculation, when the average tumor volume measured reached 169 mm^3, the animals were randomly hierarchically grouped based on tumor volume and animal weight, and started to administrate each group. PBS was a phosphate buffer solution, and Matrigel was a matrix.
3. Administration: dosage: Days 0-9: 50 mg/kg; Days 10-21: 25 mg/kg; oral administration; administration frequency: once a day×3 weeks.
Tumor Measurement and Experimental Indicators
Tumor diameter was measured twice a week with a vernier caliper.
The antitumor effect of the compound was evaluated by TGI (%).
The relative tumor volume (RTV) was calculated according to the results of tumor measurement. The calculation formula was RTV=Vt/V0, wherein V0 was the tumor volume measured during group administration (i.e., DO), and Vt was the tumor volume of the corresponding mice measured at a certain time. The data on the same day were taken for TRTV and CRTV.
TGI (%) reflected tumor growth inhibition rate.
After the end of the experiments, the tumor weight would be measured and the TGI (%) was calculated.

EGFR (C797S/T790M/L858R), sequence (P00533 25-1210 T790M/C797S/L858R): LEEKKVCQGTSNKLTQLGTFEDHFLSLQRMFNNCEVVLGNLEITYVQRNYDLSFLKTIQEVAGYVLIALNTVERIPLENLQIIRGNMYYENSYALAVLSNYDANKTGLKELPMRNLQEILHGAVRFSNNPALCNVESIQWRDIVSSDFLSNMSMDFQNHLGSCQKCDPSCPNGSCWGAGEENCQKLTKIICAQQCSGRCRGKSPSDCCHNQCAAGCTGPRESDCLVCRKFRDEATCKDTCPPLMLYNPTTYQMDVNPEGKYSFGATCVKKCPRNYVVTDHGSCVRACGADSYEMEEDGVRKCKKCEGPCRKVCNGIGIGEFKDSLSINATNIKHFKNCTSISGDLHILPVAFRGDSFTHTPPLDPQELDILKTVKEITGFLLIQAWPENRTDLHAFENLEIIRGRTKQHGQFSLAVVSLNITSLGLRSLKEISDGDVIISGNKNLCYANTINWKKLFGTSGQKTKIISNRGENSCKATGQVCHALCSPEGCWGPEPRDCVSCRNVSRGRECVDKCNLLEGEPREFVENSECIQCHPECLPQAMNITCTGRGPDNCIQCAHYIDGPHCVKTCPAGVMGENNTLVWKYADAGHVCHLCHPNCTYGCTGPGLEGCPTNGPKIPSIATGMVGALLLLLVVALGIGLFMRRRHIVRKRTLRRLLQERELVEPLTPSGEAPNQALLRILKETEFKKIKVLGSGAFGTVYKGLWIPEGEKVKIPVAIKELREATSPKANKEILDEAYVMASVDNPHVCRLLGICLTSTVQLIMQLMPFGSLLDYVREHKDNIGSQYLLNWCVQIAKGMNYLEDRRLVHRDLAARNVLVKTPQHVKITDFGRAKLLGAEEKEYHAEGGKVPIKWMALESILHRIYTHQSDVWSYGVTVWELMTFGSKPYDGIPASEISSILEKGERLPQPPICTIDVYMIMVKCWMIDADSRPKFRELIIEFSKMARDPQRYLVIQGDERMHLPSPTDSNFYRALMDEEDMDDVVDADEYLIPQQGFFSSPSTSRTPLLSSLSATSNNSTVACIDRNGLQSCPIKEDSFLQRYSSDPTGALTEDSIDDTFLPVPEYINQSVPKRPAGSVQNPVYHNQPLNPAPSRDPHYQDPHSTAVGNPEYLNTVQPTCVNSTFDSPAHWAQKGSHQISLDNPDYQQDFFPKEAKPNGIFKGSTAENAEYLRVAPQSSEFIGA
EGFR (WT), sequence (P00533 25-1210): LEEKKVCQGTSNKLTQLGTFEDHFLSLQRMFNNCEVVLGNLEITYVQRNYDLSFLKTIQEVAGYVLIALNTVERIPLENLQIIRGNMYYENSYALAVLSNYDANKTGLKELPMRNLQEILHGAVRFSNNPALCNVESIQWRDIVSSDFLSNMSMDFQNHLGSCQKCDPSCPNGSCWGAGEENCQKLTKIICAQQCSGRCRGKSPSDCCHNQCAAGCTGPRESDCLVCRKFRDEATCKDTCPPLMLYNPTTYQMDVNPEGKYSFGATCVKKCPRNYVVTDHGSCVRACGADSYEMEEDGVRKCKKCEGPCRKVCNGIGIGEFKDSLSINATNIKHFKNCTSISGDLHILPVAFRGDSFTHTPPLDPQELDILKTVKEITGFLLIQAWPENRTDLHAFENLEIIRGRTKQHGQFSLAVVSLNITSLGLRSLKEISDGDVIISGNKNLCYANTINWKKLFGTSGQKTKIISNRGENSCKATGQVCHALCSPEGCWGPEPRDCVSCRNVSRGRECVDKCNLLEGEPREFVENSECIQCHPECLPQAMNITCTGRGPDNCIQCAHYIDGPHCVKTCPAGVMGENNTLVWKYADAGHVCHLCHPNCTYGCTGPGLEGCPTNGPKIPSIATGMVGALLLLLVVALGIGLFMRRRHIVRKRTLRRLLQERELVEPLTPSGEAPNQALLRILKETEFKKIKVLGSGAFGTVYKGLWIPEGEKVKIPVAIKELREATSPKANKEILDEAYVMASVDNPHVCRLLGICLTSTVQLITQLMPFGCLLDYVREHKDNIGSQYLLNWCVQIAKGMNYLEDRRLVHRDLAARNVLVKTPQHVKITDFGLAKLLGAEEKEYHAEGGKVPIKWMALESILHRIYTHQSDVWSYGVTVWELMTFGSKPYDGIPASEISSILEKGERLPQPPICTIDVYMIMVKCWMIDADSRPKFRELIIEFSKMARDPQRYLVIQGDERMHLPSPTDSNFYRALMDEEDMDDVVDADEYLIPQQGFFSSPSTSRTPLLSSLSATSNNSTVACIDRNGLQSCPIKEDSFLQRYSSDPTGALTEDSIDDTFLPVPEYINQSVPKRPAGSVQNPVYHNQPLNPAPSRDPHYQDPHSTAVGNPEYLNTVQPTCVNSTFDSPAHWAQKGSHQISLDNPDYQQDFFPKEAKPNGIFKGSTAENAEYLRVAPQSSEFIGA
EGFR (Δ19del/T790M/C797S), sequence (P00533 25-1210 T790M/C797S limits assumed, form open): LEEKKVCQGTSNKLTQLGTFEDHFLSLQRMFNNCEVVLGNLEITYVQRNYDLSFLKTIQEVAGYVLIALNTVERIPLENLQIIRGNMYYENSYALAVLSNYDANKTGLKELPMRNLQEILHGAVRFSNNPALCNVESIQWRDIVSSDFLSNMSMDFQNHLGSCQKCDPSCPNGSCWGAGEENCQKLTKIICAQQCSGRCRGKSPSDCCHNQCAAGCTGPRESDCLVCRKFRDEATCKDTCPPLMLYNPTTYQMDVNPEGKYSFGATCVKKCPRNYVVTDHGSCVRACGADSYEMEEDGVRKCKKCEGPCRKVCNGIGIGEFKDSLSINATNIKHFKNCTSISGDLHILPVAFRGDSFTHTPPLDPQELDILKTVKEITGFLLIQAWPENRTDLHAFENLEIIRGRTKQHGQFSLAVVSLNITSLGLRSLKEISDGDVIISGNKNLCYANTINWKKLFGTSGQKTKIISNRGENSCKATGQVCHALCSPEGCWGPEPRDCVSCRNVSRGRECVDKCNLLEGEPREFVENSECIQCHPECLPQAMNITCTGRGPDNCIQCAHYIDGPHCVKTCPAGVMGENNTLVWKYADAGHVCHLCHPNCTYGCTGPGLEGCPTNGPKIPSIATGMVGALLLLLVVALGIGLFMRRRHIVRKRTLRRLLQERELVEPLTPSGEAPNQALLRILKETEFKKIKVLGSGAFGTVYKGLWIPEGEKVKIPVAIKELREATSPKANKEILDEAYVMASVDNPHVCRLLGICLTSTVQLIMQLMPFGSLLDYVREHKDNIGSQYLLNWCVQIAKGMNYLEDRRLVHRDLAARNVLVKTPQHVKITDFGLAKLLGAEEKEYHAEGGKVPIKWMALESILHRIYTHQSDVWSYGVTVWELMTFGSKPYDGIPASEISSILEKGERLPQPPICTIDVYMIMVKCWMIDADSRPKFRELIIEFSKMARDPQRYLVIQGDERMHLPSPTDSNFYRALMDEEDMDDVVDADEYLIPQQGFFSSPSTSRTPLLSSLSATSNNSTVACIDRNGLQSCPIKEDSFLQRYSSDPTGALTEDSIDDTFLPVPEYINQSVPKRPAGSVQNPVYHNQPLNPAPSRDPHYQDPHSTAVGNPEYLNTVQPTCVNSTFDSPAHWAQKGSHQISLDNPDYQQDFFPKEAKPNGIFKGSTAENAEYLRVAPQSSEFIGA

Row | Structure (SMILES) | IC50 [1] | IC50 (EGFR (WT)) | IC50 (EGFR (C797S/T790M/L858R)) | IC50 [2] | Tumor volume Day 0 (PC-9 (Δ19del) xenograft) | Tumor volume Day 2 (PC-9 (Δ19del) xenograft) | Tumor volume Day 6 (PC-9 (Δ19del) xenograft) | Tumor volume Day 9 (PC-9 (Δ19del) xenograft) | Tumor volume Day 13 (PC-9 (Δ19del) xenograft) | Tumor volume Day 16 (PC-9 (Δ19del) xenograft) | Tumor volume Day 20 (PC-9 (Δ19del) xenograft) | Tumor volume Day 23 (PC-9 (Δ19del) xenograft) | TGI (PC-9 (Δ19del) xenograft; day 23, 25 mg/kg (days 10-21) oral)
1 | CCc1cc(Nc2ncc(Br)c(Nc3ccc4nccnc4c3P(C)(C)=O)n2)c(OC)cc1N1CCC(N2CCN(C)CC2)CC1 [Compound 41] | 0.212 nM | 5.12 nM | 0.26 nM | 9 nM | 184 mm^3 | 198 mm^3 | 54 mm^3 | 44 mm^3 | 36 mm^3 | 30 mm^3 | 37 mm^3 | 42 mm^3 | 
2 | COc1cc(N2CCC(N3CCN(C)CC3)CC2)c(C)cc1Nc1ncc(Br)c(Nc2ccc3nccnc3c2P(C)(C)=O)n1 [Compound 34] |  |  |  | 22 nM | 185 mm^3 | 198 mm^3 | 92 mm^3 | 75 mm^3 | 40 mm^3 | 45 mm^3 | 76 mm^3 | 111 mm^3 | 100%
